# Data taken from publication PMC10927578, “Structural basis for CFTR inhibition by CFTRinh-172” (Proceedings of the National Academy of Sciences of the …, 2024).
# Key:
# CFTR = system: CFTR; parameters: method as in PMID 36949202; conditions: cited from earlier work; for effect on channel activity: by increasing pore opening while the NBDs are dimerized
# WT CFTR [1] = biological target: T1, WT CFTR (Homo sapiens, UniProt P13569); assay: Inside-out excised patch macroscopic current recording, WT CFTR; type: biochemical; conditions: inside-out patches, 3 mM ATP
# T1 construct: GFP (PreScission Protease-cleavable) (C, cleaved yes); made in house; host or cells: HEK293S GnTI- suspension cells infected with BacMam baculovirus
# T1 sequence (P13569 whole entry): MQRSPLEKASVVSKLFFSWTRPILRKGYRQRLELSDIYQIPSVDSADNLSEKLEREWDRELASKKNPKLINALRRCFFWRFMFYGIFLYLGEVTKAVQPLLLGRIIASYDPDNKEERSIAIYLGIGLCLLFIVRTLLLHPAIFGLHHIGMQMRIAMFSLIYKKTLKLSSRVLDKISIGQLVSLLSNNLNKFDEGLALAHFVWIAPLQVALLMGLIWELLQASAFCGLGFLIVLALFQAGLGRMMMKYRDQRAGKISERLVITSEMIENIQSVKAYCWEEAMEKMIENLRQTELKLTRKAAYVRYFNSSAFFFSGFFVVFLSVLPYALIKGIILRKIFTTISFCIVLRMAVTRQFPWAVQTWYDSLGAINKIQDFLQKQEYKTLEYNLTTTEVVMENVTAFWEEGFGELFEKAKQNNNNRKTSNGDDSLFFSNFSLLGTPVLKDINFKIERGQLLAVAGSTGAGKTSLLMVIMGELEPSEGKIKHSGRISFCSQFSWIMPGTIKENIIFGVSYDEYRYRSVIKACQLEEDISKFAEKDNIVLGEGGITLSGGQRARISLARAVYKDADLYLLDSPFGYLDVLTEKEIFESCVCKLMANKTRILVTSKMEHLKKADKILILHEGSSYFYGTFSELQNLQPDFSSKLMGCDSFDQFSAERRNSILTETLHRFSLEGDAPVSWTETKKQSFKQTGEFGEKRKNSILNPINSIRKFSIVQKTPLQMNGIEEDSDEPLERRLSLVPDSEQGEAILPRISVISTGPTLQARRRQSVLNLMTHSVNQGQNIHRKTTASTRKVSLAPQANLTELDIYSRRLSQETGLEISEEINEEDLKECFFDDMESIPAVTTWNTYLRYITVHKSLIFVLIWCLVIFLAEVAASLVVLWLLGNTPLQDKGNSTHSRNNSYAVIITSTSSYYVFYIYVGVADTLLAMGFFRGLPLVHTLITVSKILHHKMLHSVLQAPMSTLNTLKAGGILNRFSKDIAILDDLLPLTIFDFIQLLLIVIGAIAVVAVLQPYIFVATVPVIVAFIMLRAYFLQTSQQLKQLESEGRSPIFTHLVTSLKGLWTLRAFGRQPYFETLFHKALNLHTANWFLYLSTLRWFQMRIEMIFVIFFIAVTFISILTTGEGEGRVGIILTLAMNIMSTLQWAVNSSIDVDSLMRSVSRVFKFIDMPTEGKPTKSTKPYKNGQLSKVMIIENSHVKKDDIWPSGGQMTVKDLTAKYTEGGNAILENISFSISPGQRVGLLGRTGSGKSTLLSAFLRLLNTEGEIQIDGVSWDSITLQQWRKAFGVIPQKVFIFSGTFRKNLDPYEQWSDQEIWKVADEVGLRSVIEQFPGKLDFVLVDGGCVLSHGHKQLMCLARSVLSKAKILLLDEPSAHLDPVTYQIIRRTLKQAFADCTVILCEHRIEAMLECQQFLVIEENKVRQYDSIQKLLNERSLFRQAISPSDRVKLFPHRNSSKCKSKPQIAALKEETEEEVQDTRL
# CFTR (E1371Q) [2] = biological target: T2, CFTR (E1371Q) (Homo sapiens, UniProt P13569, E1371Q); assay: Inside-out excised patch macroscopic current recording, CFTR (E1371Q); type: biochemical; conditions: 10 µM CFTRinh-172; inside-out patches; PKA-phosphorylated, 3 mM ATP
# T2 construct: expressed in transfected cells; host or cells: CHO-K1 (ATCC CCL-61)
# T2 sequence (P13569 whole entry E1371Q): as the sequence (P13569 whole entry) above, with E1371Q counted along it
# K95A CFTR = biological target: T3, K95A CFTR (Homo sapiens, UniProt P13569, K95A); assay: Inside-out excised patch titration, K95A CFTR; type: biochemical; conditions: inside-out patches, 3 mM ATP, Hill coefficient fixed to 1
# T3 construct: expressed in transfected cells; host or cells: CHO-K1 (ATCC CCL-61)
# T3 sequence (P13569 whole entry K95A): as the sequence (P13569 whole entry) above, with K95A counted along it
# T1142I CFTR = biological target: T4, T1142I CFTR (Homo sapiens, UniProt P13569, T1142I); assay: Inside-out excised patch titration, T1142I CFTR; type: biochemical; conditions: inside-out patches, 3 mM ATP, Hill coefficient fixed to 1
# T4 construct: expressed in transfected cells; host or cells: CHO-K1 (ATCC CCL-61)
# T4 sequence (P13569 whole entry T1142I): as the sequence (P13569 whole entry) above, with T1142I counted along it
# S1141A CFTR = biological target: T5, S1141A CFTR (Homo sapiens, UniProt P13569, S1141A); assay: Inside-out excised patch titration, S1141A CFTR; type: biochemical; conditions: inside-out patches, 3 mM ATP
# T5 construct: expressed in transfected cells; host or cells: CHO-K1 (ATCC CCL-61)
# T5 sequence (P13569 whole entry S1141A): as the sequence (P13569 whole entry) above, with S1141A counted along it
# WT CFTR [3] = biological target: T1, WT CFTR; assay: Single-channel recording in synthetic planar lipid bilayer, WT CFTR; type: biochemical
# CFTR (E1371Q) [4] = biological target: T2, CFTR (E1371Q); assay: Single-channel recording in synthetic planar lipid bilayer, CFTR (E1371Q); type: biochemical; conditions: 10 µM CFTRinh-172, 3 mM ATP, -150 mV, mean and SE, 0.79 ± 0.03 without inhibitor
# [5] = biological target: T6, PKA-phosphorylated WT CFTR (Homo sapiens, UniProt P13569); assay: Steady-state ATP hydrolysis, NADH-coupled assay; type: biochemical; conditions: 10 µM CFTRinh-172
# T6 construct: GFP (PreScission Protease-cleavable) (C, cleaved yes); made in house; host or cells: HEK293S GnTI- suspension cells infected with BacMam baculovirus
# T6 sequence (P13569 whole entry): as the sequence (P13569 whole entry) above
# WT CFTR [6] = biological target: T7, WT CFTR (Homo sapiens, UniProt P13569, C128S/C1344S/C1355S/C1395S/C1400S/C1410S/C1458S/C225S/C276S/C343S/C491S/C592M/C647S/C76L/C832S/C866S/S1435C/T388C); assay: smFRET imaging of NBD dimerization, WT CFTR; type: biochemical; conditions: 10 µM CFTRinh-172, 3 mM ATP
# T7 construct: GFP (PreScission Protease-cleavable) (C); made in house; host or cells: HEK293S GnTI- suspension cells infected with BacMam baculovirus
# T7 sequence (P13569 1-1480 with the stated changes): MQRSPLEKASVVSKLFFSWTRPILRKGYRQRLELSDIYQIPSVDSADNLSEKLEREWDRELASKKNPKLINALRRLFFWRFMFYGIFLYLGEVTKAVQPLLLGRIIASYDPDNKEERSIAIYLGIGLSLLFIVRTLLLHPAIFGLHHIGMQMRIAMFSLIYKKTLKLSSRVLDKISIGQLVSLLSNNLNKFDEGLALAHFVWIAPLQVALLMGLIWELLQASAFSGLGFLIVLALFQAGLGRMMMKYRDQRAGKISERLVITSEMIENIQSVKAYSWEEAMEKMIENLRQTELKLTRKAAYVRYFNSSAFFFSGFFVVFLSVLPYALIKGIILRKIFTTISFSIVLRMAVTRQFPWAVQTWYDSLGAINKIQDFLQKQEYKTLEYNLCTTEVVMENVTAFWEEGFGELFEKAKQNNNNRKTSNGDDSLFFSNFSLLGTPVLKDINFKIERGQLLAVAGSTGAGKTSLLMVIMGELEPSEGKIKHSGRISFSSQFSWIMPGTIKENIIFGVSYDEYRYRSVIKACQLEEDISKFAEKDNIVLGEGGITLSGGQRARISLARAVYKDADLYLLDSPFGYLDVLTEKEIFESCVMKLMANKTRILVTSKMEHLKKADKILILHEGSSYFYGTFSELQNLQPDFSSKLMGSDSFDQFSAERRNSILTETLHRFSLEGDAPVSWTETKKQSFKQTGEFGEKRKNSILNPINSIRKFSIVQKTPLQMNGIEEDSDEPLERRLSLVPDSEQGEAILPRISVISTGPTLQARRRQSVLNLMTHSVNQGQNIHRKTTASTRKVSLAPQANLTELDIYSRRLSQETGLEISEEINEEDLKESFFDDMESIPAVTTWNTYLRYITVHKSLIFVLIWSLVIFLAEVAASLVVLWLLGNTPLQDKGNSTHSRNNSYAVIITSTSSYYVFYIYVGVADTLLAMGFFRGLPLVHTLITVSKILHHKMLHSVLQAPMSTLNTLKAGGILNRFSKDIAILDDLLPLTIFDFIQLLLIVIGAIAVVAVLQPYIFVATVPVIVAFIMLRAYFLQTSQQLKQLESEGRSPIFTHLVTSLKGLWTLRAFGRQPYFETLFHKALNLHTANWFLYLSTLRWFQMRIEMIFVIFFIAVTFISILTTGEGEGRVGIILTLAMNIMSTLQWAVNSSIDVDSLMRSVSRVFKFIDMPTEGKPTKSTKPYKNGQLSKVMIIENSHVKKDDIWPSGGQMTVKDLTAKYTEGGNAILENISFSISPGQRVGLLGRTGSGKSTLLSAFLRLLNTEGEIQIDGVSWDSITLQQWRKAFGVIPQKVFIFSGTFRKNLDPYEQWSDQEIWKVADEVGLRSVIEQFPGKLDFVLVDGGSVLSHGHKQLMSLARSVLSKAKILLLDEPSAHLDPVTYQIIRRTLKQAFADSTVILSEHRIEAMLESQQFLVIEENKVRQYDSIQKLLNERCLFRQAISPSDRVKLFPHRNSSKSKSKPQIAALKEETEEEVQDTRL
# CFTR (E1371Q) [7] = biological target: T8, CFTR (E1371Q) (Homo sapiens, UniProt P13569, C128S/C1344S/C1355S/C1395S/C1400S/C1410S/C1458S/C225S/C276S/C343S/C491S/C592M/C647S/C76L/C832S/C866S/E1371Q/S1435C/T388C); assay: smFRET imaging of NBD dimerization, CFTR (E1371Q); type: biochemical; conditions: with CFTRinh-172
# T8 construct: GFP (PreScission Protease-cleavable) (C); made in house; host or cells: HEK293S GnTI- suspension cells infected with BacMam baculovirus
# T8 sequence (P13569 1-1480 with the stated changes): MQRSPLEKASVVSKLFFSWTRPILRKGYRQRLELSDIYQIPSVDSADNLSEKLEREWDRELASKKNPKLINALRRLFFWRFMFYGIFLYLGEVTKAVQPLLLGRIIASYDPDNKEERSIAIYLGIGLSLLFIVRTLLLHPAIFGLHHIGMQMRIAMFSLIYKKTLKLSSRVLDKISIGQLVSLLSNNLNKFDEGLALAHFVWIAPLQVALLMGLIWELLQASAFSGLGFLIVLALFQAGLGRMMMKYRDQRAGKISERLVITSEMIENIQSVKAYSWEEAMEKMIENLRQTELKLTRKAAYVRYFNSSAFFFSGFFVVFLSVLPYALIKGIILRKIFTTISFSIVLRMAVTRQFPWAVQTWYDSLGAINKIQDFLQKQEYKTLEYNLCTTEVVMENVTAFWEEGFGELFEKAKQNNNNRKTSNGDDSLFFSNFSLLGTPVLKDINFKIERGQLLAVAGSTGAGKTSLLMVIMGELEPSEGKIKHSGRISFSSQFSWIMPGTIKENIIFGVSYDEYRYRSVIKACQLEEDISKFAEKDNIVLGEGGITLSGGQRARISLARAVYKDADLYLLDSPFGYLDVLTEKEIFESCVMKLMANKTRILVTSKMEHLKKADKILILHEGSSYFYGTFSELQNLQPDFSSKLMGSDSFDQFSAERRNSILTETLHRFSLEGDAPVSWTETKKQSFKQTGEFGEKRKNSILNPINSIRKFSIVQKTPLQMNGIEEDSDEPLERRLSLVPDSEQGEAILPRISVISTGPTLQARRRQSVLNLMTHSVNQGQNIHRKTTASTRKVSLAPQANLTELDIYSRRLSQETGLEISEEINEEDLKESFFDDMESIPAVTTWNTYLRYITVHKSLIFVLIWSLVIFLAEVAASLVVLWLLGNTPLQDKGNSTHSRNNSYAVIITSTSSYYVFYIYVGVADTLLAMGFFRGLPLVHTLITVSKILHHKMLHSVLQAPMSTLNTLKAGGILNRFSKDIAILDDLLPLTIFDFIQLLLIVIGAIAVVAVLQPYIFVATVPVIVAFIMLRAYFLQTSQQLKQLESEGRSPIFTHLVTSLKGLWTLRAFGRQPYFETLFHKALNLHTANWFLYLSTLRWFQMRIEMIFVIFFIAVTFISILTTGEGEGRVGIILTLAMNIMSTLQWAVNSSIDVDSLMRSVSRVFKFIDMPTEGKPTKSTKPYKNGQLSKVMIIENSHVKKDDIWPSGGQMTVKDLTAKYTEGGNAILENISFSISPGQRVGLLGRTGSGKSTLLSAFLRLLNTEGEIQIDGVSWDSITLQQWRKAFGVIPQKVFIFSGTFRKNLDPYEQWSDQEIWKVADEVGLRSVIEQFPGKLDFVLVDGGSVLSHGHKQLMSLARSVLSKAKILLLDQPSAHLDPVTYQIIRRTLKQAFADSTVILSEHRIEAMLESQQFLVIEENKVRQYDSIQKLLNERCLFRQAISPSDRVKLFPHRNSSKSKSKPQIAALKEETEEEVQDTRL
# CFTR R347A = system: CFTR R347A; parameters: method as in PMID 18366345; conditions: R347A vs WT CFTR; cited from earlier work
# CFTR R347D = system: CFTR R347D; parameters: method as in PMID 18366345; conditions: cited from earlier work
# [8] = system: cholera toxin-induced intestinal fluid secretion; conditions: in vivo; cited from earlier work
# cyst growth = system: cyst growth; parameters: method as in PMID 18385427; conditions: animal models of polycystic kidney disease; cited from earlier work
SMILES,effect on channel activity (CFTR),effect on ATP turnover (CFTR),"reduction of macroscopic current (WT CFTR [1]; 10 µM CFTRinh-172, PKA-phosphorylated)","IC50 (WT CFTR [1]; WT CFTR, Hill coefficient fixed to 1)",inhibition of macroscopic current relative to WT CFTR (CFTR (E1371Q) [2]),IC50 (K95A CFTR),IC50 (T1142I CFTR),effect of S1141A substitution on inhibitory potency (S1141A CFTR),"open probability (WT CFTR [3]; 10 µM CFTRinh-172, 3 mM ATP, -150 mV, mean and SE, 0.21 ± 0.05 without inhibitor)","mean open dwell time (WT CFTR [3]; with CFTRinh-172, 3 mM ATP, 487 ± 92 ms without inhibitor)",open probability (CFTR (E1371Q) [4]),change of Michaelis-Menten constant (Km) for ATP [5],saturating ATP turnover (kcat) ([5]; 22.0 ± 2.2 without inhibitor),effect on dwell time of the NBD-dimerized state (WT CFTR [6]),effect on probability of NBD dimerization (WT CFTR [6]),effect on conformational dynamics (CFTR (E1371Q) [7]),decrease in potency on substitution of R347 with alanine (CFTR R347A),effect of R347D substitution on inhibition (CFTR R347D),cholera toxin-induced intestinal fluid secretion [8],cyst growth (cyst growth)
"CC(C)(C)c1cc(C(C)(C)C)c(NC(=O)c2c[nH]c3ccccc3c2=O)cc1O [Ivacaftor, N-(2,4-Di-tert-butyl-5-hydroxyphenyl)-4-oxo-1,4-dihydroquinoline-3-carboxamide]",enhance channel activity,increase ATP turnover,,,,,,,,,,,,,,,,,,
"CC1(C)Cc2c(sc(NC(=O)c3ccn[nH]3)c2C(N)=O)C(C)(C)O1 [GLPG1837, N-(3-Carbamoyl-5,5,7,7-tetramethyl-5,7-dihydro-4H-thieno[2,3-c]pyran-2-yl)-lH-pyrazole-5-carboxamide]",enhance channel activity,increase ATP turnover,,,,,,,,,,,,,,,,,,
O=C(O)c1ccc(/C=C2\SC(=S)N(c3cccc(C(F)(F)F)c3)C2=O)cc1 [CFTRinh-172],,,96%,0.6 ± 0.1 µM,comparable level of inhibition,3.5 ± 0.9 µM,5.3 ± 3.1 µM,no effect on inhibitory potency,0.007 ± 0.003,109 ± 14 ms,0.0011 ± 0.0004,not significantly changed,5.2 ± 1.0 ATP/protein/min,did not significantly affect,did not significantly affect,did not affect,over 30 fold,nearly eliminated its inhibitory effect,block cholera toxin-induced intestinal fluid secretion,suppress cyst growth
